Here are results for one compound from publication PMC4086741 (Molecular Pharmaceutics, 2014).

In one data set the target is P-gp (Homo sapiens, UniProt P08183). The data set is described as follows: Calcein-AM transport. Conditions: P-gp-overexpressing KB-V1 cells, probe calcein-AM (0.5 μg/mL).
A further data set concerns the target T1, ABCG2 (Homo sapiens, UniProt Q9UNQ0).
T1 sequence (Q9UNQ0 1-655): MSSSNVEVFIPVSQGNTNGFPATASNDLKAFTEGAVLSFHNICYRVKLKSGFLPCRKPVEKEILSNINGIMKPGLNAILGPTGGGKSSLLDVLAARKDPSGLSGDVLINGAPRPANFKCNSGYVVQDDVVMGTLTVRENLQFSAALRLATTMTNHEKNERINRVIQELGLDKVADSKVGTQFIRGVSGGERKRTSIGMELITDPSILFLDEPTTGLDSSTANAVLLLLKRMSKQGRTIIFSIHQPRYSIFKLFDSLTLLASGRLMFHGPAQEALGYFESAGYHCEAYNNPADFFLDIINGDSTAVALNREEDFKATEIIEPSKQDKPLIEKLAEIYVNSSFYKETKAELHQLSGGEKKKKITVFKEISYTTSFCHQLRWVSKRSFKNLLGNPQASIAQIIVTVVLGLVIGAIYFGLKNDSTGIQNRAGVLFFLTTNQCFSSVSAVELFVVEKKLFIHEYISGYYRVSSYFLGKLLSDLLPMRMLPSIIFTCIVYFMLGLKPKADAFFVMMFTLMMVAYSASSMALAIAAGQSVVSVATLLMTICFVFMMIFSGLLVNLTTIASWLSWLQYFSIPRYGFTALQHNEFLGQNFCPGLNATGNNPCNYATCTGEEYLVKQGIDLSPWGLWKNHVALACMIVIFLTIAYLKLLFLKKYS
The data set can be described thus: Mitoxantrone transport. Conditions: ABCG2-overexpressing MCF7-FLV1000 cells, probe mitoxantrone (5 μM).

P-gp, sequence (P08183 whole entry): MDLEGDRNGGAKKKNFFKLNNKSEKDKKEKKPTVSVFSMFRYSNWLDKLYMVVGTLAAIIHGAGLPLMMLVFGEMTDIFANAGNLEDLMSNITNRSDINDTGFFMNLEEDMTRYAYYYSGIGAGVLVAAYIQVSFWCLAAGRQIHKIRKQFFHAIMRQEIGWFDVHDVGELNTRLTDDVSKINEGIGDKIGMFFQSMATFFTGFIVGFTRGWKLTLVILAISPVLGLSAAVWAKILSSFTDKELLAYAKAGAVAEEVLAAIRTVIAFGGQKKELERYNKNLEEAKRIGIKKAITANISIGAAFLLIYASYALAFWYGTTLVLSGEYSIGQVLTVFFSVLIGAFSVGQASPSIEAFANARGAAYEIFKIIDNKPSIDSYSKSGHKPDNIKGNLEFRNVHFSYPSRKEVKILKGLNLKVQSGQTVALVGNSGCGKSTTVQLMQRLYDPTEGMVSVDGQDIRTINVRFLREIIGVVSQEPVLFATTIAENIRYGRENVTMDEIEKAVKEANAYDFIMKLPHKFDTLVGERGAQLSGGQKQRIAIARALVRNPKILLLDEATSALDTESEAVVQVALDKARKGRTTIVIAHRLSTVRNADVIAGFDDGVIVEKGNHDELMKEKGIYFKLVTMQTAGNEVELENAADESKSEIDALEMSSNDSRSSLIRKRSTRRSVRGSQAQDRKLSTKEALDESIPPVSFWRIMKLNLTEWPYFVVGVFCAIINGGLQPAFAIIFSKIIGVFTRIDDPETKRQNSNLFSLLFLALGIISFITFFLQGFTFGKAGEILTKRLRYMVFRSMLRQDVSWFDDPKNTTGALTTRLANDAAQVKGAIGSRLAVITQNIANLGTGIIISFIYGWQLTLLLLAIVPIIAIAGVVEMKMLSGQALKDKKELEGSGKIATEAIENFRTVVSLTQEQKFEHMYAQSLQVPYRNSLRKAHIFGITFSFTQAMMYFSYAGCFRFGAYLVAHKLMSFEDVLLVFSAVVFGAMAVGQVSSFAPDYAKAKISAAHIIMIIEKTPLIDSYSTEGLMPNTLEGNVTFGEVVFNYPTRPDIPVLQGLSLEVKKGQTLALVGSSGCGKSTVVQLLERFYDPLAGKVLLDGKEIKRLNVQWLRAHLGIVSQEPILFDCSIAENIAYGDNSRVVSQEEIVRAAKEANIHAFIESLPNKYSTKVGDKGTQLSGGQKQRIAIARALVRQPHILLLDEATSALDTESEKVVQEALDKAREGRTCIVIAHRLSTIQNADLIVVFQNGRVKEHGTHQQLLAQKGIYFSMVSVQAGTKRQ

`Cc1cn(-c2cc(NC(=O)c3ccc(C)c(Nc4nccc(-c5cccnc5)n4)c3)cc(C(F)(F)F)c2)cn1` [nilotinib, Nilotinib]: the IC20 on P-gp was 1160 nM; against ABCG2, 240 nM.
